Reference: PubChem BioAssay AID248 (DTP/NCI, 2004)
“And” between values parts separate entries of the source, which are not always exact repeats. Equal values may be shown once. Toxic doses and inconclusive results are not listed. No stated cut-off is given here; in the data, active means T/C of 150% or more; inactive means T/C below 125%.

System: L1210 leukemia ip in BDF1 mice, survival T/C
Assay: NCI In Vivo Anticancer Drug Screen. Data for tumor model L1210 Leukemia (intraperitoneal) in B6D2F1 (BDF1) mice
Conditions: endpoint: mean survival time, higher = longer survival
How it was run: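 Tumor cells were implanted, animals were treated, and survival was followed. The result divides the treated measurement by the vehicle-control measurement.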

[1] = dose: 100.0 mg/kg/injection, schedule: Q01DX001 (ip), vehicle: saline
[2] = dose: 200.0 mg/kg/injection, schedule: Q01DX001 (ip), vehicle: saline
[3] = dose: 400.0 mg/kg/injection, schedule: Q01DX001 (ip), vehicle: saline
[4] = dose: 50.0 mg/kg/injection, schedule: Q01DX009 (ip), vehicle: acetone
[5] = dose: 100.0 mg/kg/injection, schedule: Q01DX009 (ip), vehicle: acetone
[6] = dose: 200.0 mg/kg/injection, schedule: Q01DX009 (ip), vehicle: acetone
[7] = dose: 100.0 mg/kg/injection, schedule: Q04DX003 (ip), vehicle: Klucel (hydroxypropylcellulose) (HPC)
[8] = dose: 200.0 mg/kg/injection, schedule: Q04DX003 (ip), vehicle: Klucel (hydroxypropylcellulose) (HPC)
[9] = dose: 400.0 mg/kg/injection, schedule: Q04DX003 (ip), vehicle: Klucel (hydroxypropylcellulose) (HPC)

Measured: T/C

CCN1c2ccccc2C(Cl)(c2ccc(N(C)C)cc2)c2ccccc21
inactive: dose: 1.8 mg/kg/injection, schedule: Q03HX024 (ip), vehicle: saline 96 % of control | dose: 2.6 mg/kg/injection, schedule: Q03HX024 (ip), vehicle: saline 88 % of control | dose: 3.9 mg/kg/injection, schedule: Q03HX024 (ip), vehicle: saline 95 % of control | dose: 5.9 mg/kg/injection, schedule: Q03HX024 (ip), vehicle: saline 101 % of control | dose: 6.25 mg/kg/injection, schedule: Q01DX009 (ip), vehicle: saline 93 % of control | dose: 6.25 mg/kg/injection, schedule: Q04DX003 (ip), vehicle: saline 95 % of control | dose: 8.8 mg/kg/injection, schedule: Q01DX009 (ip), vehicle: saline 101 % of control | dose: 8.8 mg/kg/injection, schedule: Q03HX024 (ip), vehicle: saline 101 % of control and 104 % of control | dose: 12.5 mg/kg/injection, schedule: Q01DX001 (ip), vehicle: saline 101 % of control | dose: 12.5 mg/kg/injection, schedule: Q01DX009 (ip), vehicle: saline 115 % of control | dose: 12.5 mg/kg/injection, schedule: Q04DX003 (ip), vehicle: saline 108 % of control | dose: 13.0 mg/kg/injection, schedule: Q01DX009 (ip), vehicle: saline 105 % of control | dose: 18.0 mg/kg/injection, schedule: Q01DX001 (ip), vehicle: saline 103 % of control | dose: 18.0 mg/kg/injection, schedule: Q04DX003 (ip), vehicle: saline 104 % of control | dose: 20.0 mg/kg/injection, schedule: Q01DX009 (ip), vehicle: saline 106 % of control | dose: 25.0 mg/kg/injection, schedule: Q01DX001 (ip), vehicle: saline 111 % of control | dose: 25.0 mg/kg/injection, schedule: Q01DX009 (ip), vehicle: saline 112 % of control | dose: 25.0 mg/kg/injection, schedule: Q04DX003 (ip), vehicle: saline 104 % of control | dose: 26.0 mg/kg/injection, schedule: Q01DX001 (ip), vehicle: saline 103 % of control | dose: 26.0 mg/kg/injection, schedule: Q04DX003 (ip), vehicle: saline 102 % of control | dose: 30.0 mg/kg/injection, schedule: Q01DX009 (ip), vehicle: saline 98 % of control | dose: 39.0 mg/kg/injection, schedule: Q01DX001 (ip), vehicle: saline 104 % of control | dose: 39.0 mg/kg/injection, schedule: Q04DX003 (ip), vehicle: saline 103 % of control

c1cc[c]([Pb]([c]2ccccc2)([c]2ccccc2)[n]2ccc3ccccc32)cc1
inactive: dose: 1.0 mg/kg/injection, schedule: Q04DX003 (ip), vehicle: saline with Tween-80 113 % of control | dose: 1.56 mg/kg/injection, schedule: Q01DX009 (ip), vehicle: saline with Tween-80 91 % of control | dose: 2.0 mg/kg/injection, schedule: Q04DX003 (ip), vehicle: saline with Tween-80 90 % of control | dose: 3.12 mg/kg/injection, schedule: Q01DX009 (ip), vehicle: saline with Tween-80 89 % of control | dose: 4.0 mg/kg/injection, schedule: Q04DX003 (ip), vehicle: saline with Tween-80 101 % of control | dose: 8.0 mg/kg/injection, schedule: Q04DX003 (ip), vehicle: saline with Tween-80 101 % of control

O=c1c([N+](=O)[O-])c[nH]c2cc(Cl)ccc12
inactive: dose: 50.0 mg/kg/injection, schedule: Q01DX001 (ip), vehicle: saline 92 % of control | [1] 101 % of control | [2] 103 % of control | [3] 97 % of control

COc1ccc(/C2=C/CCCCCC2)cc1
inactive: [4] 87 % of control | [5] 92 % of control | dose: 100.0 mg/kg/injection, schedule: Q04DX003 (ip), vehicle: acetone 96 % of control | [6] 95 % of control | dose: 200.0 mg/kg/injection, schedule: Q04DX003 (ip), vehicle: acetone 103 % of control | dose: 400.0 mg/kg/injection, schedule: Q04DX003 (ip), vehicle: acetone 101 % of control

CCCCCCCCCCCC[n+]1cccc(C)c1
inactive: dose: 5.0 mg/kg/injection, schedule: Q01DX001 (ip), vehicle: saline 94 % of control

CC(=O)NC1CCCCCC1I (stereo not given)
inactive: dose: 10.0 mg/kg/injection, schedule: Q01DX001 (ip), vehicle: saline 105 % of control | dose: 20.0 mg/kg/injection, schedule: Q01DX001 (ip), vehicle: saline 101 % of control | dose: 40.0 mg/kg/injection, schedule: Q01DX001 (ip), vehicle: saline 98 % of control

Cn1ncc(C(=O)O)c1NN=O
inactive: dose: 50.0 mg/kg/injection, schedule: Q04DX003 (ip), vehicle: saline 104 % of control | dose: 100.0 mg/kg/injection, schedule: Q01DX001 (ip), vehicle: carboxymethylcellulose (CMC) 106 % of control | dose: 100.0 mg/kg/injection, schedule: Q04DX003 (ip), vehicle: saline 105 % of control | dose: 200.0 mg/kg/injection, schedule: Q01DX001 (ip), vehicle: carboxymethylcellulose (CMC) 108 % of control | dose: 200.0 mg/kg/injection, schedule: Q04DX003 (ip), vehicle: saline 96 % of control | dose: 400.0 mg/kg/injection, schedule: Q01DX001 (ip), vehicle: carboxymethylcellulose (CMC) 102 % of control

N#C/C(=C/c1ccccc1B(O)O)C(=O)O
inactive: [7] 89 % of control | [8] 93 % of control | [9] 95 % of control

CCNc1nnc(N=Nc2ccccc2)s1
active: dose: 100.0 mg/kg/injection, schedule: Q04DX002 (ip), vehicle: saline with Tween-80 170 % of control
inactive: dose: 12.5 mg/kg/injection, schedule: Q01DX009 (ip), vehicle: saline with Tween-80 97 % of control | dose: 25.0 mg/kg/injection, schedule: Q01DX009 (ip), vehicle: saline with Tween-80 102 % of control and 92 % of control | dose: 50.0 mg/kg/injection, schedule: Q01DX009 (ip), vehicle: saline with Tween-80 86 % of control | dose: 100.0 mg/kg/injection, schedule: Q01DX009 (ip), vehicle: saline with Tween-80 91 % of control | dose: 200.0 mg/kg/injection, schedule: Q04DX002 (ip), vehicle: saline with Tween-80 98 % of control | dose: 400.0 mg/kg/injection, schedule: Q01DX009 (ip), vehicle: saline with Tween-80 91 % of control | dose: 400.0 mg/kg/injection, schedule: Q04DX002 (ip), vehicle: saline with Tween-80 98 % of control

CCCCC(=O)N/N=C/c1ccc(Br)cc1
inactive: [1] 100 % of control | [2] 97 % of control | [3] 102 % of control

CC(C)=CBr
inactive: [4] 96 % of control | [5] 89 % of control | [6] 103 % of control

CCCCOc1ccc(OC(=O)Nc2cc(Cl)ccc2OC)cc1
inactive: dose: 100.0 mg/kg/injection, schedule: Q01DX009 (ip), vehicle: Klucel (hydroxypropylcellulose) (HPC) 105 % of control | [7] 96 % of control | dose: 200.0 mg/kg/injection, schedule: Q01DX009 (ip), vehicle: Klucel (hydroxypropylcellulose) (HPC) 97 % of control | [8] 97 % of control | dose: 400.0 mg/kg/injection, schedule: Q01DX009 (ip), vehicle: Klucel (hydroxypropylcellulose) (HPC) 113 % of control | [9] 97 % of control

O=C1NC(c2ccccc2)C(=O)NC1c1ccccc1 (stereo not given)
inactive: dose: 100.0 mg/kg/injection, schedule: Q04DX003 (ip), vehicle: saline with Tween-80 94 % of control | dose: 200.0 mg/kg/injection, schedule: Q04DX003 (ip), vehicle: saline with Tween-80 86 % of control | dose: 400.0 mg/kg/injection, schedule: Q04DX003 (ip), vehicle: saline with Tween-80 89 % of control

COC(=O)[C@@]12OC[C@]34[C@H]([C@@H](O)[C@@H]1O)[C@@]1(C)[C@H](O)C(=O)C=C(C)[C@@H]1C[C@H]3OC(=O)C(OC(C)=O)[C@@H]24 (stereo not given in full)
inactive: dose: 125.0 micrograms/kg/injection, schedule: Q01DX009 (ip), vehicle: saline + alcohol 104 % of control | dose: 250.0 micrograms/kg/injection, schedule: Q01DX009 (ip), vehicle: saline + alcohol 105 % of control | dose: 500.0 micrograms/kg/injection, schedule: Q01DX009 (ip), vehicle: saline + alcohol 96 % of control | dose: 1000.0 micrograms/kg/injection, schedule: Q01DX009 (ip), vehicle: saline + alcohol 102 % of control | dose: 2000.0 micrograms/kg/injection, schedule: Q01DX009 (ip), vehicle: saline + alcohol 104 % of control
